Results from patent publication US20250214996A1, “SALTS AND SOLID FORMS OF AN ESTROGEN RECEPTOR ANTAGONIST” (Olema Pharmaceuticals, Inc., priority 2022, published 2025).
Converted amounts (≈) assume the structure as drawn. “And” between values parts separate entries of the source, which are not always exact repeats. Equal values may be shown once. Read-outs that look alike come from different tables or passages of the source. Marks after values point to notes of the source that are not given here.

Experiments:
[1] = Pharmacokinetic study in Beagle dogs, oral capsule; assay type: in vivo; details: for AUClast/D / AUC∞/D: dose-normalised
Method: Compound 1 […] in two different forms was administered orally (PO) to male and female Beagle dogs. Blood was serially collected up to 144 hours post dose for determination of plasma pharmacokinetic analysis.
Animals were healthy at the start of the study and were between 1 and 6.5 years of age. Initial body weights were recorded at the start of the study and general health observations were recorded at each blood collection time point.
Each Group contained 3 male and 1 female dog. Capsules were administered by placing the capsule to the back of the throat, followed by a 10 mL flush with drinking water.
Plasma concentrations of Compound 1 were determined by LC-MS/MS. Pharmacokinetic parameters were determined using Phoenix WinNonlin (v8.0) non-compartmental analyses.

[2] = Kinetic solubility estimate, solvent aliquot addition, visual observation; assay type: physicochemical
Method: A polymorph screen was conducted using amorphous Compound 1. To help design the experiments, kinetic solubilities of the compound were estimated. The estimation was done using a solvent aliquot addition method, and dissolution was judged by visual observation. In Table 14, solvent ratios (v/v) are approximate; values are rounded to nearest whole number. If complete dissolution was achieved by one aliquot addition, solubilities were reported as “>”; if […], solubilities were reported as “<”. The actual solubility may be larger than the value calculated due to the use of solvent aliquots that were too large or due to a slow rate of dissolution.
A polymorph screen was conducted using Compound 1 Fumarate Form A Ethyl Acetate Solvate. The screen consisted primarily of long term slurry experiments. To help design screen experiments, kinetic solubilities of Fumarate Form A Ethyl Acetate Solvate were estimated. The estimation was done on a 3-11 mg scale using a solvent aliquot addition method, and dissolution was judged by visual observation. Solubilities are estimated at ambient temperature and reported to the nearest mg/mL; if complete dissolution was achieved by one aliquot addition, solubilites were reported as […]

[3] = Stability in oven at 60° C. for two weeks; assay type: physicochemical; details: for HPLC Purity (%) Starting: before storage; for XRPD: form after oven at 60° C. for two weeks
Method: Amorphous Compound 1, Compound 1 Fumarate Form E, and Compound 1 Fumarate Form A Anhydrate were placed in an oven at 60° C. for two weeks to evaluate their stability.

[4] = Dynamic vapor sorption (DVS) hygroscopicity; assay type: physicochemical; details: for Form Change after DVS?: XRPD before and after DVS
Method: Dynamic Vapor Sorption (DVS) was measured by a SMS (Surface Measurement Systems) DVS Intrinsic. Parameters for DVS test are listed below:
Alternatively, DVS was performed using Intrinsic DVS ([…], UK). About 30-50 mg of sample was placed in a sample basked and hung in the measuring chamber. For an isotherm test, the chamber temperature is maintained by a water bath at a constant 25±1° C. The sample was tested at a targeted RH from 0 to 90% full cycle in step mode. The analysis was performed in 10% RH increments. Time duration at each RH was set as 60 min so that the sample could reach equilibrium with the chamber environment. Data were collected in 20 s increments.
A DVS isotherm plot was collected at 25° C. to investigate the solid form stability as a function of humidity. For Compound 1 Fumarate Form A Anhydrate, solids were pre-equilibrated at 0% RH to remove the unbounded solvent or water before the hygroscopicity experiment was started.

[5] = Solubility by dynamic method; assay type: physicochemical; details: for solubility at 15 min: organic solvent or mixture, thermodynamic from solid; for solubility at 15 min / Solubility: Dynamic
Method: […] Solubility was measured by the dynamic method and gravimetric method.
Dynamic method: Under the condition of a certain amount of solute and certain temperature, solvent was gradually added with stirring for 15 min to reach equilibrium. When solute is completely dissolved, amount of solvent was recorded and the solubility calculated.

[6] = Solid form change on heating (XRPD); assay type: physicochemical
[7] = Bulk density in graduated cylinder; assay type: physicochemical
Method: Bulk density of Compound 1 Fumarate Form E was measured by gently introducing a known sample mass into a graduated cylinder (50 mL), leveling the powder without compacting it, and recording the apparent untapped volume to the nearest graduated unit.

[8] = Solubility by gravimetric method; assay type: physicochemical; details: H2O, 25° C.
Method: Solubility studies of Compound 1 and Compound 1 Fumarate in different solvents at 25° C. were performed. Solubility was measured by the dynamic method and gravimetric method.
Gravimetric method: Excess solids and a certain amount of solvent were added 8 mL vials, stirred for 24 hours, and filtered.

[9] = Competitive slurry of Fumarate Form E and Fumarate Form A Anhydrate (XRPD); assay type: physicochemical
Method: Competitive slurry experiments were performed with Compound 1 Fumarate Form E and Compound 1 Fumarate Form A Anhydrate, as follows:
Experiment #1: Compound 1 Fumarate Form E (100 mg), Compound 1 Fumarate Form A Anhydrate (100 mg), and isopropanol (2 mL) were added into two 8-mL vials and mixed well in a shaker at 25° C. and 40° C., respectively. Samples for analysis were taken at 24 h and 72 h.
Experiment #2: Compound 1 Fumarate Form E (100 mg), Compound 1 Fumarate Form A Anhydrate (100 mg), and water (2 mL) were added into two 8-mL vials and mixed well in a shaker at 25° C. and 40° C., respectively. Samples for analysis were taken at 24 h and 72 h.
Experiment #3: Compound 1 Fumarate Form E (100 mg), Compound 1 Fumarate Form A Anhydrate (100 mg), and ethyl acetate (2 mL) were added into two 8-mL vials and mixed well in a shaker at 25° C. and 40° C., respectively. Samples for analysis were taken at 24 h and 72 h.

[10] = dose 5.34 mg/kg (Group 1), 7.4 mg/kg (Group 2), plasma
[11] = both sexes, dog, dose 5.34 mg/kg (Group 1), 7.4 mg/kg (Group 2), plasma

## CCCN1CC(Oc2ccc([C@@H]3c4[nH]c5ccccc5c4C[C@@H](C)N3CC(C)(C)F)cc2)C1.O=C(O)/C=C/C(=O)O
[1]; dose 5.34 mg/kg (Group 1), 7.4 mg/kg (Group 2)
  AUC∞: 17271 ng·h/mL
[1]; [10]
  MRTlast: 39.8 h
  t1/2: 49.6 h
  tmax: 3.5 h
[1]
  AUClast/D: 2001 kg·ng·h/mL/mg
  AUC∞/D: 2351 kg·ng·h/mL/mg
[2]; ambient temperature, 2-BuOH
  Solubility: 17 mg/mL
[2]; ambient temperature, 2-McTHF
  Solubility: 32 mg/mL
[2]; ambient temperature, ACN, re-precipitated after first aliquot
  Solubility (mg/mL): <2* mg/mL
[2]; ambient temperature, Anisole
  Solubility: <1 mg/mL
[2]; ambient temperature, DCE
  Solubility: <9 mg/mL
[2]; ambient temperature, DCE/EtOH (96/4)
  Solubility (mg/mL): Dissolved at 8 mg/mL
[2]; ambient temperature, Dioxane
  Solubility: >104 mg/mL
[2]; ambient temperature, IPA
  Solubility: 20 mg/mL
[2]; ambient temperature, IPA/water (50/50)
  Solubility: >124 mg/mL
[2]; ambient temperature, MIBK
  Solubility: 4 mg/mL
[2]; ambient temperature, MTBE
  Solubility: 2 mg/mL
[2]; ambient temperature, TFE
  Solubility: >100 mg/mL
[2]; ambient temperature, t-BuOAc, re-precipitated after first aliquot
  Solubility (mg/mL): 1* mg/mL

## CCCN1CC(Oc2ccc([C@@H]3c4[nH]c5ccccc5c4C[C@@H](C)N3CC(C)(C)F)cc2)C1 [Amorphous Compound 1]
[1]; [11]
  Cmax: 343 ng/mL
  MRT last: 37.8 h
  half-life: 56.4 h
[1]; both sexes, dog, dose 5.34 mg/kg (Group 1), 7.4 mg/kg (Group 2), plasma, read-out: tmax
  tmax: 3.25 h
[1]; both sexes, dog, plasma, dose 5.34 mg/kg (Group 1), 7.4 mg/kg (Group 2)
  AUC(0-inf): 8960 ng·h/mL
[1]; both sexes, dog, plasma, dose 5.34 mg/kg (Group 1), 7.4 mg/kg (Group 2), up to 144 hours
  AUC(0-t): 7460 ng·h/mL
[1]
  AUClast/D: 1297 kg·ng·h/mL/mg
  AUC∞/D: 1527 kg·ng·h/mL/mg
[3]
  HPLC Purity (%) Starting: 99.23%
  XRPD: No change
[3]; oven at 60° C. for two weeks
  HPLC Purity (%) 60° C.: 98.94%
  HPLC Purity (%) Degradation: −0.29%
[4]; listed as Amorphous Freebase
  Form Change after DVS?: No
[4]; based on water uptake at 25° C./80% RH
  Hygroscopicity (%)* (class): Slightly
[4]; water uptake at 25° C./80% RH
  Hygroscopicity (%)* (water uptake): (0.463) %
[5]; 25° C.
  solubility in isopropanol: high solubility
[5]; IPA, 25° C.
  solubility at 15 min: > 468 mg/mL
[2]; aqueous with cosolvent or surfactant or cyclodextrin, thermodynamic from solid, amorphous Compound 1, 2-MeTHF/MeOH/water (60/20/20), read-out: Solubility
  Solubility: 106 mg/mL (≈ 236 mM)
[2]; aqueous with cosolvent or surfactant or cyclodextrin, thermodynamic from solid, amorphous Compound 1, ACN/water (60/40), read-out: Solubility
  Solubility: < 6 mg/mL
[2]; aqueous with cosolvent or surfactant or cyclodextrin, thermodynamic from solid, amorphous Compound 1, Dioxane/water (60/40), read-out: Solubility
  Solubility: < 13 mg/mL
[2]; aqueous with cosolvent or surfactant or cyclodextrin, thermodynamic from solid, amorphous Compound 1, MeOH/water (40/60), appeared hydrophobic, read-out: Solubility
  Solubility: < 55 mg/mL
[2]; aqueous with cosolvent or surfactant or cyclodextrin, thermodynamic from solid, amorphous Compound 1, NMP/water (68/32), read-out: Solubility
  Solubility: 7 mg/mL (≈ 15.6 mM)
[2]; organic solvent or mixture, thermodynamic from solid, amorphous Compound 1, Heptane, read-out: Solubility
  Solubility: > 191 mg/mL
[2]; organic solvent or mixture, thermodynamic from solid, amorphous Compound 1, IPA, read-out: Solubility
  Solubility: 82 mg/mL (≈ 182 mM)

## CCCN1CC(Oc2ccc([C@@H]3c4[nH]c5ccccc5c4C[C@@H](C)N3CC(C)(C)F)cc2)C1 [Compound 1 Form A Acetonitrile Solvate]
[4]; DVS
  hygroscopicity by DVS: slightly hygroscopic
[4]; DVS, FIG. 4
  water uptake (DVS): 1.9%
[4]
  Form Change after DVS?: same crystalline pattern after DVS
[6]; heating to 70° C. and 80° C.
  form after heating (XRPD): became amorphous

## CCCN1CC(Oc2ccc([C@@H]3c4[nH]c5ccccc5c4C[C@@H](C)N3CC(C)(C)F)cc2)C1 [Compound 1 Form B]
[6]; heating to 100° C.
  form after heating (XRPD): became amorphous

## CCCN1CC(Oc2ccc([C@@H]3c4[nH]c5ccccc5c4C[C@@H](C)N3CC(C)(C)F)cc2)C1.O=C(O)/C=C/C(=O)O [Compound 1 Fumarate Form E]
[7]; average of three runs
  Bulk Density (g/mL), Average: 0.1239 g/mL
[7]; untapped, runs 1-3
  Bulk Density: 0.1288 g/mL and 0.1233 g/mL and 0.1196 g/mL
[3]
  HPLC Purity (%) Starting: 99.54%
  XRPD: No change
[3]; oven at 60° C. for two weeks
  HPLC Purity (%) 60° C.: 99.50%
  HPLC Purity (%) Degradation: −0.05%
  stability relative to Amorphous Compound 1: improved stability
[8]
  Solubility: 1.0 mg/mL
[9]; ethyl acetate, 72 h at 25° C. or 40° C.
  competitive slurry outcome (XRPD): a mixture of Compound 1 Fumarate Form E and Compound 1 Fumarate Form A Anhydrate remained
[9]; isopropanol, 24 h at 25° C. or 40° C.
  competitive slurry outcome (XRPD): more stable than Form A in isopropanol
[9]; water, 72 h at 25° C. or 40° C.
  competitive slurry outcome (XRPD): a mixture of Compound 1 Fumarate Form E and Compound 1 Fumarate Form A Anhydrate remained
[4]; DVS
  hygroscopicity by DVS: not hygroscopic
[5]; IPA/heptane (1/1), 25° C.
  Solubility: ~2.35 mg/mL
[5]; IPA/heptane (1/3), 25° C.
  Solubility: <1 mg/mL
[5]; IPA/heptane (5/1), 25° C.
  Solubility: 5.89 mg/mL
[5]; IPA/heptane (5/3), 25° C.
  Solubility: ~3.57 mg/mL
[5]; IPA, 0° C.
  Solubility: <1 mg/mL
[5]; IPA, 25° C.
  Solubility: ~8.46 mg/mL
[5]; 25° C.
  solubility in isopropanol: very low solubility

## O=C(O)/C=C/C(=O)O [Fumaric acid]
[5]; 25° C.
  solubility in isopropanol: relatively low solubility
[5]; IPA, 25° C.
  solubility at 15 min: 34.3 mg/mL (≈ 296 mM)
